Laboratory results taken from the NIST ThermoML archive (doi:10.1016/j.tca.2014.06.026).
± gives the expanded uncertainty stated by the source.

How the values were obtained:
[1] = xn = mol fraction of the nth substance listed; details: 101 kPa, Liquid, x1 = 1; for speed of sound: Frequency=2 MHz, Sing-around technique in a fixed-path interferometer; for viscosity: Oscillating disk viscometry; for mass density: Vibrating tube method
[2] = 101 kPa, Liquid; for speed of sound: Frequency=2 MHz, Sing-around technique in a fixed-path interferometer; for viscosity: Oscillating disk viscometry; for mass density: Vibrating tube method

CN1CCCC1=O [N-methylpyrrolidone] + NC1CCCCC1
[1]
Details | mass density [kg/m3] | speed of sound [m/s] | viscosity [mPa·s]
303.15 K | 1023.45 ± 0.11 | 1552.8 ± 1 | 1.511 ± 0.3
308.15 K | 1019.34 ± 0.11 | 1526.4 ± 0.9 | 1.409 ± 0.28
313.15 K | 1014.82 ± 0.11 | 1501 ± 0.9 | 1.332 ± 0.27
318.15 K | 1010.06 ± 0.11 | 1478 ± 0.9 | 1.21 ± 0.24

CN1CCCC1=O [N-methylpyrrolidone] + C1=CCCCC1
[1]
Details | mass density [kg/m3] | speed of sound [m/s] | viscosity [mPa·s]
303.15 K | 1023.45 ± 0.11 | 1552.8 ± 1 | 1.511 ± 0.3
308.15 K | 1019.34 ± 0.11 | 1526.4 ± 0.9 | 1.409 ± 0.28
313.15 K | 1014.82 ± 0.11 | 1501 ± 0.9 | 1.332 ± 0.27
318.15 K | 1010.06 ± 0.11 | 1478 ± 0.9 | 1.21 ± 0.24

NC1CCCCC1 [cyclohexylamine]
[2]
Details | mass density [kg/m3] | speed of sound [m/s] | viscosity [mPa·s]
303.15 K | 857.71 ± 0.14 | 1397.8 ± 0.9 | 1.797 ± 0.36
308.15 K | 853.14 ± 0.14 | 1379.2 ± 0.9 | 1.704 ± 0.34
313.15 K | 848.61 ± 0.14 | 1360.6 ± 0.9 | 1.617 ± 0.32
318.15 K | 844.07 ± 0.14 | 1342 ± 0.9 | 1.506 ± 0.3

CN1CCCC1=O [N-methylpyrrolidone]
[2]
Details | mass density [kg/m3] | speed of sound [m/s] | viscosity [mPa·s]
303.15 K | 1023.45 ± 0.11 | 1552.8 ± 1 | 1.511 ± 0.3
308.15 K | 1019.34 ± 0.11 | 1526.4 ± 0.9 | 1.409 ± 0.28
313.15 K | 1014.82 ± 0.11 | 1501 ± 0.9 | 1.332 ± 0.27
318.15 K | 1010.06 ± 0.11 | 1478 ± 0.9 | 1.21 ± 0.24

C1=CCCCC1 [cyclohexene]
[2]
Details | mass density [kg/m3] | speed of sound [m/s] | viscosity [mPa·s]
303.15 K | 801.81 ± 0.15 | 1252.1 ± 0.8 | 0.581 ± 0.12
308.15 K | 797.25 ± 0.15 | 1224.8 ± 0.8 | 0.549 ± 0.11
313.15 K | 792.61 ± 0.15 | 1196.6 ± 0.8 | 0.516 ± 0.1
318.15 K | 788.02 ± 0.15 | 1169.6 ± 0.8 | 0.488 ± 0.098

OC1CCCCC1 [cyclohexanol]
[2]
Details | mass density [kg/m3] | speed of sound [m/s] | viscosity [mPa·s]
303.15 K | 941.32 ± 0.12 | 1443.2 ± 0.9 | 41.07 ± 8.2
308.15 K | 937.23 ± 0.12 | 1419.6 ± 0.9 | 27.95 ± 5.6
313.15 K | 933.48 ± 0.12 | 1395.2 ± 0.9 | 16.66 ± 3.3
318.15 K | 928.11 ± 0.12 | 1370.8 ± 0.9 | 8.888 ± 1.8

CN1CCCC1=O [N-methylpyrrolidone] + OC1CCCCC1
[1]
Details | mass density [kg/m3] | speed of sound [m/s] | viscosity [mPa·s]
303.15 K | 1023.45 ± 0.11 | 1552.8 ± 1 | 1.511 ± 0.3
308.15 K | 1019.34 ± 0.11 | 1526.4 ± 0.9 | 1.409 ± 0.28
313.15 K | 1014.82 ± 0.11 | 1501 ± 0.9 | 1.332 ± 0.27
318.15 K | 1010.06 ± 0.11 | 1478 ± 0.9 | 1.21 ± 0.24
